Assay [1] has as its target ERE dsDNA (estrogen response element). The assay can be described thus: Thiazole orange total fluorescence titration with unlabeled DNA. To be noted: TO fluorescence ex 510 nm, em 535 nm; read-out: binding constant (dissociation constant). As for the experimental part:
(§1) Fluorescence Measurements. Steady state fluorescence anisotropy measurements were carried out in 20 mM Tris (pH 7.9), 30 mM NaCl, 20 mM KCl, 1 mM MgCl2, and 5% glycerol. […] DNA samples used were either the non-labeled sequences shown in FIG. 2 or a fluorescein labeled duplex with a sequence matching GRE2 (FIG. 2).
(§2) For non-labeled DNA titrations (measuring the fluorescence from thiazole orange), the excitation wavelength was 510 nm and the emission was recorded at 535 nm with a 1.0 nm slit width. Glass cuvettes were used with a 0.3 cm path length. Titrations were performed using a constant concentration of unconjugated thiazole orange (TO) or TO-ZF and titrated with DNA as indicated.
(§3) Total fluorescence data were collected in parallel to the anisotropy measurements and were calculated from raw data as the fluorescence intensity in the vertical plane plus two times the fluorescence intensity of the horizontal plane, (TF=Ivv+2Ivh). These values were used to determine the percent of the maximum fluorescence for each point along the titration and fit to equation 2. [formula]
(§4) In equation 2, f corresponds to the fraction of TO-ZF conjugate bound at a given concentration of DNA. The concentration given as [TO(ZF)]T corresponds to either the unconjugated thiazole orange or the TOZF conjugate as indicated and [GRE]T is the total concentration of GRE binding sites. The parameter of the fit was the dissociation constant (Kd).
(§5) Titrations of the TO fluorescence upon binding of TO-ZF to unlabeled DNA were measured for the dsDNA sequences shown in FIG. 2. TO fluorescence was excited at 510 nm and collected at 535 nm. The GRE1 DNA sequence contains the same binding site as does the GRE2 DNA sequence used above, however, the GRE3 sequence contains a single mutation of the guanine in the native GRE target sequence (5′-TGTTCT-3′) to an adenine. The GRE2 and GRE3 sequences were generated for use in the photocleavage measurements described below. Finally, the GRE4 and ERE recognition sequences are from the non-specific GRE halfsite and the estrogen response element (ERE), respectively. M. A. L. Eriksson, J. Molec. Biol. 253:453-472 (1995). These are used in conjunction with the other sequences to determine the sensitivity of this probe. The DNA is not fluorescently labeled in these measurements. Therefore, the fluorescence is exclusively from thiazole orange molecules intercalated into dsDNA.
(§6) Fitting the binding curves to a two-state binding model (see Materials and Methods) results in a dissociation constant of 25 nM for GRE1 and GRE2, which contain the native GRE. Titrations of the modified GRE sequences and the ERE sequence yielded binding constants of 57 nM, 220 nM and 810 nM for the TO-ZF conjugate bound to GRE3, GRE4, and ERE, respectively.

The target of assay [2] is GRE1 dsDNA (native GRE target sequence). Described as above. Conditions: TO fluorescence ex 510 nm, em 535 nm; read-out: dissociation constant, two-state binding model. On the procedure:
as §1, §2, §3, §4, §5, §6

Assay [3] deals with GRE2 dsDNA (native GRE target sequence). Described as above. To be noted: TO fluorescence ex 510 nm, em 535 nm; read-out: dissociation constant, two-state binding model. On the procedure: as §1, §2, §3, §4, §5, §6
The target of assay [4] is GRE4 dsDNA (non-specific GRE halfsite). Described as above. Conditions: TO fluorescence ex 510 nm, em 535 nm; read-out: binding constant (dissociation constant). As for the experimental part: as §1, §2, §3, §4, §5, §6
A further assay deals with GRE3 dsDNA. The assay can be described thus: Photocleavage at 514 nm, PAGE analysis. The assay is classed as biochemical. As for the experimental part:
The purified DNA strands shown in FIG. 2 were 5′^-32P-end-labeled using T4 polynucleotide kinase and purified as described above. Oxygen removal was performed by bubbling argon through the samples. Irradiations were performed on […] samples in a 1.0 mL glass cuvette fit with a septum using an argon-ion laser at 514 nm with a power of 300 mW/cm^2. After irradiation, samples were divided in half and one portion treated with piperidine, the other immediately frozen. Piperidine treatment consisted of adding an equal volume of freshly prepared 20% piperidine in water to the sample followed by heating at 90° C. for 30 minutes. Both the treated and untreated fractions were dried under vacuum. To each dried sample was added […] of 80% formamide in water. The products of the photocleavage experiments were analyzed on a 15% polyacrylamide (19:1) vertical sequencing gel with dimensions 21 cm×40 cm×0.4 mm. Maxam-Gilbert A+G and C+T sequencing reactions were used as a reference. A. M. Maxam, et al., Meth. Enzymol. 65:499-560 (1980). Gels were run at 2000V for 1.5-2 hours. Gels were dried and exposed to a phosphorimaging screen for 4 hours and analyzed on a Molecular Dynamics Storm-840 gel scanner in phosphorimaging mode.
Photocleavage of TO-ZF conjugate. We examined the photoinduced cleavage of 5′-32P-end-labeled dsDNA fragments containing the dsDNA sequences GRE1, GRE2 and GRE3 in the presence of either unconjugated TO or TO-ZF. […] We have performed similar photocleavage measurements of the complementary strands in the dsDNA duplexes used in each case. […] After irradiation of TO-ZF bound to dsDNA in Tris buffer solution at 514 nm (514 nm is in the main band of the absorbance spectrum of intercalated thiazole orange as shown in FIG. 3), the photo-products were denatured and separated using denaturing polyacrylamide gel electrophoresis (PAGE). […]
To explore other possible mechanisms of thiazole orange mediated photocleavage in the region on the 5′-side of the GRE target sequence, the guanine located within the GRE (5′-TGTTCT-3′) in the GRE1 dsDNA fragment was changed to an adenine to give GRE3 (FIG. 2). […] Fluorescence measurements of TO-ZF binding to GRE1 and GRE3 target sequences (FIG. 5A) show only a modest difference in the dissociation constant between the two sequences. Thus the measured changes in the photocleavage products between GRE1 and GRE3 are not an artifact of strong differences in the binding affinity of TO-ZF between these sequences. […] The total chemical yield of the piperidine dependent reactions in these bands, measured as the number of fluorescence counts in product bands divided by the total counts of a given lane, increased three-fold from 2% in GRE1 (described above) to 6% in GRE3 for samples reacted in the presence of oxygen. […]

The record followed here is US6348317B1, “Fluorescent and DNA cleavage properties of peptide/dye conjugates” (The Arizona Board of Regents, priority 1999, dated 2002).

Bounds are passed on as bounds.

Turning to “TO-ZF: 29 amino acid single zinc finger from residues 438-465 of glucocorticoid receptor, thiazole orange coupled to a lysine ε-amine”, the Kd in assay [1] amounted to 810 nM; in assay [2] it was 25 nM; in assay [3] it was 25 nM; in assay [4], 220 nM. Further, the “pattern of photo-induced cleavage” value in the assay with GRE3 dsDNA (514 nm, gel electrophoresis) was “a confined group of bands flanking the altered GRE sequence which are only partially piperidine dependent”. Moreover, the “increase in band intensity of strand cleavage in the presence of D2O” value with GRE3 dsDNA (D2O rather than H2O in the buffer) is given as no more than 25%. For the same substance, the “lowering of chemical yield in the absence of oxygen” value with GRE3 dsDNA (piperidine treated samples, absence of oxygen) was 10-20%. Besides, in the assay with GRE3 dsDNA (samples reacted in the presence of oxygen), the “total chemical yield of the piperidine dependent reactions” value is reported as 6%.
